Results as given in patent US20250197403A1, “HETEROARYL COMPOUNDS FOR TREATMENT OF COMPLEMENT FACTOR D MEDIATED DISORDERS” (Achillion Pharmaceuticals, Inc., priority 2020, published 2025).

Biological target: Human Factor D (Homo sapiens (Human), UniProt P00746)
Test: Human Factor D Assay
Assay type: biochemical
Details: Human Factor D 80 nM, substrate Z-L-Lys-SBzl, assay according to Example 3
Summary of the method: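 Serum-purified factor D (80 nM final) preincubated with compound 5 min at room temperature in 50 mM Tris, 1M NaCl, pH 7.5. Z-L-Lys-SBzl substrate and DTNB added at 100 μM each; A405 read every 30 s for 30 min. IC50 from nonlinear regression of reaction rates versus compound concentration.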

Sequence of Human Factor D (P00746 26-253): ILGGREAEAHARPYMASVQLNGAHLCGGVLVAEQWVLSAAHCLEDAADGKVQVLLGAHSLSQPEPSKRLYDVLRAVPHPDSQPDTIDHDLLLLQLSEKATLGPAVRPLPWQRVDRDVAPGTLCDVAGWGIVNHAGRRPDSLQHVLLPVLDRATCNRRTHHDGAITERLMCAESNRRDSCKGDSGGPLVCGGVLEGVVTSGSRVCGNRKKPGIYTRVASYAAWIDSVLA

Structure (SMILES) | IC50
CC(=O)c1cn(CC(=O)N2[C@H](C(=O)Nc3nc(C(F)(F)F)ncc3C)C[C@@]3(C)C[C@@H]23)c2c(C)cc(-c3cnc(C)nc3)cc12 [Compound 57, (1R,3S,5R)-2-(2-(3-acetyl-7-methyl-5-(2-methylpyr-imidin-5-yl)-1H-indol-1-yl)acetyl)-5-methyl-N-(5-methyl-2-(trifluorometh-yl)pyrimidin-4-yl)-2-aza-bicyclo[3.1.0]hexane-3-carboxamide] | < 1000 nM
CC(=O)c1cn(CC(=O)N2[C@H](C(=O)Nc3nc(C(F)(F)F)cc(F)c3C)C[C@@]3(C)C[C@@H]23)c2c(C)cc(-c3ccc4nc(C)nn4c3)cc12 [Compound 58, (1R,3S,5R)-2-(2-(3-acetyl-7-methyl-5-(2-methyl-[1,2,4]triazolo[1,5-a]pyr-idin-6-yl)-1H-indol-1-yl)-acetyl)-N-(4-fluoro-3-methyl-6-(trifluorometh-yl)pyridin-2-yl)-5-methyl-2-azabicyclo[3.1.0]hexane-3-carboxamide] | < 1000 nM
CC(=O)c1cn(CC(=O)N2[C@H](C(=O)Nc3nc(C(F)(F)F)cnc3C)C[C@@]3(C)C[C@@H]23)c2c(C)cc(-c3cnc(C)nc3)cc12 [Compound 59, (1R,3S,5R)-2-(2-(3-acetyl-7-methyl-5-(2-methylpyr-imidin-5-yl)-1H-indol-1-yl)acetyl)-5-methyl-N-(3-methyl-6-(trifluorometh-yl)pyrazin-2-yl)-2-azabi-cyclo[3.1.0]hexane-3-car-boxamide] | 1000 to 10000 nM
CC(=O)c1cn(CC(=O)N2[C@H](C(=O)Nc3nc(C(F)(F)F)cnc3C)C[C@@]3(C)C[C@@H]23)c2c(C)cc(-c3cnc4cc(C)nn4c3)cc12 [Compound 60, (1R,3S,5R)-2-(2-(3-acetyl-7-methyl-5-(2-methylpyr-azolo[1,5-a]pyrimidin-6-yl)-1H-indol-1-yl)acetyl)-5-methyl-N-(3-methyl-6-(trifluoromethyl)pyrazin-2-yl)-2-azabicyclo[3.1.0] hexane-3-carboxamide] | < 1000 nM
CC(=O)c1cn(CC(=O)N2C[C@@](F)(CF)C[C@H]2C(=O)Nc2nc(C(F)(F)F)ccc2C)c2c(C)cc(-c3cnc(C)nc3)cc12 [Compound 61, (2S,4R)-1-(2-(3-acetyl-7-methyl-5-(2-methylpyrim-idin-5-yl)-1H-indol-1-yl)-acetyl)-4-fluoro-4-(fluoro-methyl)-N-(3-methyl-6-(trifluoromethyl)pyridin-2-yl)pyrrolidine-2-carbox-amide] | < 1000 nM
CC(=O)c1cn(CC(=O)N2C[C@H]3C[C@H]3[C@H]2C(=O)Nc2nc(Br)ccc2C)c2c(C)cc(-c3cnc4cc(C)nn4c3)cc12 [Compound 63, (1R,2S,5S)-3-(2-(3-acetyl-7-methyl-5-(2-methylpyr-azolo[1,5-a]pyrimidin-6-yl)-1H-indol-1-yl)acetyl)-N-(6-bromo-3-methylpyr-idin-2-yl)-3-azabicyclo [3.1.0]hexane-2-carbox-amide] | < 1000 nM
CC(=O)c1cn(CC(=O)N2[C@H](C(=O)Nc3ccn(CC(F)(F)F)n3)C[C@@]3(C)C[C@@H]23)c2c(C)cc(-c3cnc4cc(C)nn4c3)cc12 [Compound 64, (1R,3S,5R)-2-(2-(3-acetyl-7-methyl-5-(2-methylpyr-azolo[1,5-a]pyrimidin-6-yl)-1H-indol-1-yl)acetyl)-5-methyl-N-(1-(2,2,2-tri-fluoroethyl)-1H-pyrazol-3-yl)-2-azabicyclo[3.1.0] hexane-3-carboxamide] | < 1000 nM
CC(=O)c1cn(CC(=O)N2[C@H](C(=O)Nc3ccn(CC(F)(F)F)n3)C[C@@]3(C)C[C@@H]23)c2c(C)cc(-c3ccc4nc(C)nn4c3)cc12 [Compound 65, (1R,3S,5R)-2-(2-(3-acetyl-7-methyl-5-(2-methyl-[1,2,4]triazolo[1,5-a]pyr-idin-6-yl)-1H-indol-1-yl)-acetyl)-5-methyl-N-(1-(2,2,2-trifluoroethyl)-1H-pyrazol-3-yl)-2-azabicyclo [3.1.0]hexane-3-carbox-amide] | < 1000 nM
CC(=O)c1cn(CC(=O)N2C[C@H](F)C[C@H]2C(=O)Nc2ccn(CC(F)(F)F)n2)c2c(C)cc(-c3cnc4cc(C)nn4c3)cc12 [Compound 66, (2S,4R)-1-(2-(3-acetyl-7-methyl-5-(2-methylpyr-azolo[1,5-a]pyrimidin-6-yl)-1H-indol-1-yl)acetyl)-4-fluoro-N-(1-(2,2,2-tri-fluoroethyl)-1H-pyrazol-3-yl)pyrrolidine-2-carbox-amide] | < 1000 nM
CC(=O)c1cn(CC(=O)N2C[C@H](F)C[C@H]2C(=O)Nc2ccn(CC(F)(F)F)n2)c2ccc(-c3cnc4cc(C)nn4c3)cc12 [Compound 67, (2S,4R)-1-(2-(3-acetyl-5-(2-methylpyrazolo[1,5-a]pyrimidin-6-yl)-1H-indol-1-yl)acetyl)-4-fluoro-N-(1-(2,2,2-trifluoroethyl)-1H-pyrazol-3-yl)pyrrolidine-2-carboxamide] | < 1000 nM
CC(=O)c1cn(CC(=O)N2[C@H](C(=O)Nc3nc(Br)ccc3Cl)C[C@@]3(C)C[C@@H]23)c2c(C)cc(-c3cnc(C)nc3)cc12 [Compound 68, (1R,3S,5R)-2-(2-(3-acetyl-7-methyl-5-(2-methylpyr-imidin-5-yl)-1H-indol-1-yl)acetyl)-N-(6-bromo-3-chloropyridin-2-yl)-5-methyl-2-azabicyclo[3.1.0] hexane-3-carboxamide] | < 1000 nM
CC(=O)c1nn(CC(=O)N2[C@H](C(=O)Nc3nc(Br)ccc3C)C[C@@]3(C)C[C@@H]23)c2cc3c(cc12)-c1cnc(C)nc1C=CC3 [Compound 69, (1R,3S,5R)-2-(2-(11-acet-yl-3-methylpyrimido [4′,5′:6,7]cyclohepta[1,2-f]indazol-9(7H)-yl)acetyl)-N-(6-bromo-3-methylpyr-idin-2-yl)-5-methyl-2-aza-bicyclo[3.1.0]hexane-3-carboxamide] | < 1000 nM
CC(=O)c1cn(CC(=O)N2[C@H](C(=O)Nc3nc(C(F)(F)F)c(F)cc3C)C[C@@]3(C)C[C@@H]23)c2c(C)cc(-c3cnc(C)nc3)cc12 [Compound 71, (1R,3S,5R)-2-(2-(3-acetyl-7-methyl-5-(2-methylpyr-imidin-5-yl)-1H-indol-1-yl)acetyl)-N-(5-fluoro-3-methyl-6-(trifluorometh-yl)pyridin-2-yl)-5-methyl-2-azabicyclo[3.1.0]hexane-3-carboxamide] | < 1000 nM
[2H]C([2H])([2H])OC([2H])([2H])c1ccc(C(F)(F)F)nc1NC(=O)[C@@H]1C[C@@]2(C)C[C@H]2N1C(=O)Cn1cc(C(C)=O)c2cc(-c3cnc4cc(C)nn4c3)cc(C)c21 [Compound 80, (1R,3S,5R)-2-(2-(3-acetyl-7-methyl-5-(2-methylpyr-azolo[1,5-a]pyrimidin-6-yl)-1H-indol-1-yl)acetyl)-N-(3-((methoxy-d3)meth-yl-d2)-6-(trifluoromethyl)-pyridin-2-yl)-5-methyl-2-azabicyclo[3.1.0]hexane-3-carboxamide] | < 1000 nM
[2H]C([2H])([2H])OCc1ccc(C(F)(F)F)nc1NC(=O)[C@@H]1C[C@@]2(C)C[C@H]2N1C(=O)Cn1cc(C(C)=O)c2cc(-c3ccc4nc(C)nn4c3)cc(C)c21 [Compound 81, (1R,3S,5R)-2-(2-(3-acetyl-7-methyl-5-(2-methyl-[1,2,4]triazolo[1,5-a]pyr-idin-6-yl)-1H-indol-1-yl)-acetyl)-N-(3-((methoxy-d3)methyl-d2)-6-(trifluoro-methyl)pyridin-2-yl)-5-methyl-2-azabicyclo[3.1.0] hexane-3-carboxamide] | < 1000 nM
CC(=O)c1nn(CC(=O)N(C)[C@@H](C)C(=O)Nc2nc(Br)ccc2C)c2cc3c(cc12)-c1cnc(C)nc1CC=C3 [Compound 109, (S)-2-(2-(11-acetyl-3-methylpyrimido[4′,5′:6,7]cyclohepta[1,2-f]indazol-9(5H)-yl)-N-methylacetamido)-N-(6-bromo-3-methylpyridin-2-yl)propanamide] | < 1000 nM
CC(=O)c1nn(CC(=O)N(C)[C@@H](C)C(=O)Nc2nc(Br)ccc2C)c2cc3c(cc12)-c1cnc(C)nc1C=CC3 [Compound 110, (S)-2-(2-(11-acetyl-3-methylpyrimido[4′,5′:6,7]cyclohepta[1,2-f]indazol-9(7H)-yl)-N-methylacetamido)-N-(6-bromo-3-methylpyridin-2-yl)propanamide] | < 1000 nM
